Read-outs that look alike come from different tables or passages of the source. Non-standard residues stand in square brackets, D forms with d. Residues, ends and D or L forms follow the SMILES beside them. *: point of attachment. pY = N[C@@H](Cc1ccc(OP(=O)(O)O)cc1)C(=O)O; Caffeoyl = O=C(/C=C/c1ccc(O)c(O)c1)*
Tests used:
Test in all cases: biochemical
Type in all cases: binding
CRK = target: T1, CRK (Homo sapiens, UniProt P46108); details: for percent of DMSO vehicle control at 10 µM / remaining activity at 10 µM: read-out: percent of DMSO vehicle control
T1 construct: the DNA-tagged SH2 domain concentrations used in this study were <0.1 nM; made in house; host or cells: HEK293 (transient transfection; unpurified extract)
T1 sequence (P46108 13-118 limits assumed): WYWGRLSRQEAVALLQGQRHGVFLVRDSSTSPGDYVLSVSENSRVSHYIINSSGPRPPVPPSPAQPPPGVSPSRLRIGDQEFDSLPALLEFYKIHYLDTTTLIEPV

FES = target: T2, FES (Homo sapiens, UniProt P07332); details: for remaining activity at 10 µM: read-out: percent of DMSO vehicle control
T2 construct: the DNA-tagged SH2 domain concentrations used in this study were <0.1 nM; made in house; host or cells: HEK293 (transient transfection; unpurified extract)
T2 sequence (P07332 460-549 limits assumed): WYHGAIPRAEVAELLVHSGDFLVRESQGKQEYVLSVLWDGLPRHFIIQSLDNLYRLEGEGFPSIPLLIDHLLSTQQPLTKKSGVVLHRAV

FGR = target: T3, FGR (Homo sapiens, UniProt P09769); details: for remaining activity at 10 µM: read-out: percent of DMSO vehicle control
T3 construct: the DNA-tagged SH2 domain concentrations used in this study were <0.1 nM; made in house; host or cells: HEK293 (transient transfection; unpurified extract)
T3 sequence (P09769 144-241 limits assumed): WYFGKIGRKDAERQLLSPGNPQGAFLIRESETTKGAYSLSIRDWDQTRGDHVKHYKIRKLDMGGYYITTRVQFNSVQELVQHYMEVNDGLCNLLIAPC

FRK = target: T4, FRK (Homo sapiens, UniProt P42685); details: for percent of DMSO vehicle control at 10 µM / remaining activity at 10 µM: read-out: percent of DMSO vehicle control
T4 construct: the DNA-tagged SH2 domain concentrations used in this study were <0.1 nM; made in house; host or cells: HEK293 (transient transfection; unpurified extract)
T4 sequence (P42685 116-208 limits assumed): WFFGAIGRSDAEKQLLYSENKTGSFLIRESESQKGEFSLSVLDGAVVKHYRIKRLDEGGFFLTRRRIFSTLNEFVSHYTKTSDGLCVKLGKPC

GRB2 = target: T5, GRB2 (Homo sapiens, UniProt P62993); details: for percent of DMSO vehicle control: primary screen, 10 μM
T5 construct: the DNA-tagged SH2 domain concentrations used in this study were <0.1 nM; made in house; host or cells: HEK293 (transient transfection; unpurified extract)
T5 sequence (P62993 60-152 limits assumed): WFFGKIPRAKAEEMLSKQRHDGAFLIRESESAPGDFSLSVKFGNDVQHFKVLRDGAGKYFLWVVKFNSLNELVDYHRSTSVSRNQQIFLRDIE

SH2D6 = target: T6, SH2D6 (Homo sapiens, UniProt Q7Z4S9); details: for remaining activity at 10 µM: read-out: percent of DMSO vehicle control
T6 construct: made in house; host or cells: HEK293 (transient transfection), unpurified extract
T6 sequence (Q7Z4S9 whole entry): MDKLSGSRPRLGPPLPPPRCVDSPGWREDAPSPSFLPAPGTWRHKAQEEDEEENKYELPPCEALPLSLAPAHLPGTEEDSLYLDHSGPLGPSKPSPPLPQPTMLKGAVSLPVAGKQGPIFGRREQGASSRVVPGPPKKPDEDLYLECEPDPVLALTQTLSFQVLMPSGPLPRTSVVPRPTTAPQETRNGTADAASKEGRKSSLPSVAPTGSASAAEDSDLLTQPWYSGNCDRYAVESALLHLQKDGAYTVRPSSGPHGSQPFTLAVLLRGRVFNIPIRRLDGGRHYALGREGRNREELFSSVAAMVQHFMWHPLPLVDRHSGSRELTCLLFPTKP

SHB = target: T7, SHB (Homo sapiens, UniProt Q15464); details: for remaining activity at 10 µM: read-out: percent of DMSO vehicle control
T7 construct: made in house; host or cells: HEK293 (transient transfection), unpurified extract
T7 sequence (Q15464 whole entry): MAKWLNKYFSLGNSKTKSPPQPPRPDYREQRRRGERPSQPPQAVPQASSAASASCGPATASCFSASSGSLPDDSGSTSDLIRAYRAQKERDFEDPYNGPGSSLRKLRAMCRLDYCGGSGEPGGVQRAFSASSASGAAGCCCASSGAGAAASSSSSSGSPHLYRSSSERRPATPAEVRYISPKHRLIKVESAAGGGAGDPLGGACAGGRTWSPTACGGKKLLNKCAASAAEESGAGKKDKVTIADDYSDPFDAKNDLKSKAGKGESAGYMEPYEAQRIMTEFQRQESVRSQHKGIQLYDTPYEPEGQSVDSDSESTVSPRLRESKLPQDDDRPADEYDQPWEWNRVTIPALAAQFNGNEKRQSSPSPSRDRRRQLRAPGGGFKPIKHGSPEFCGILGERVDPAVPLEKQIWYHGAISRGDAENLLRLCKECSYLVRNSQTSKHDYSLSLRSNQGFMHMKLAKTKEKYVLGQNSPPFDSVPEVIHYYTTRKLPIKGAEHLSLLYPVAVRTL

SOCS4 = target: T8, SOCS4 (Homo sapiens, UniProt Q8WXH5); details: for remaining activity at 10 µM: read-out: percent of DMSO vehicle control
T8 construct: made in house; host or cells: HEK293 (transient transfection), unpurified extract
T8 sequence (Q8WXH5 1-440): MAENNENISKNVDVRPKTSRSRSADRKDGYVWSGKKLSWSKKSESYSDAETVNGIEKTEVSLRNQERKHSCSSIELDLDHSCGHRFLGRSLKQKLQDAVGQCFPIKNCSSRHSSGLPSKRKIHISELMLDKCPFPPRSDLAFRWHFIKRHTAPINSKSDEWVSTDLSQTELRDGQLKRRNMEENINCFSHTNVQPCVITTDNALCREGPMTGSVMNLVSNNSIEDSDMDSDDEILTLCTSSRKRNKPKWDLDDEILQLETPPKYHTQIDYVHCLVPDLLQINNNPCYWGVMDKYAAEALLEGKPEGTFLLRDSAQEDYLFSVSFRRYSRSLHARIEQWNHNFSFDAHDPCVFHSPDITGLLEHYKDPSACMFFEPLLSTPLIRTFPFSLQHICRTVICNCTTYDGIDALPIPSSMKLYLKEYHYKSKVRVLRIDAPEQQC

SRC = target: T9, SRC (Homo sapiens, UniProt P12931); details: for remaining activity at 10 µM: read-out: percent of DMSO vehicle control
T9 construct: made in house; host or cells: HEK293 (transient transfection), unpurified extract
T9 sequence (P12931 whole entry): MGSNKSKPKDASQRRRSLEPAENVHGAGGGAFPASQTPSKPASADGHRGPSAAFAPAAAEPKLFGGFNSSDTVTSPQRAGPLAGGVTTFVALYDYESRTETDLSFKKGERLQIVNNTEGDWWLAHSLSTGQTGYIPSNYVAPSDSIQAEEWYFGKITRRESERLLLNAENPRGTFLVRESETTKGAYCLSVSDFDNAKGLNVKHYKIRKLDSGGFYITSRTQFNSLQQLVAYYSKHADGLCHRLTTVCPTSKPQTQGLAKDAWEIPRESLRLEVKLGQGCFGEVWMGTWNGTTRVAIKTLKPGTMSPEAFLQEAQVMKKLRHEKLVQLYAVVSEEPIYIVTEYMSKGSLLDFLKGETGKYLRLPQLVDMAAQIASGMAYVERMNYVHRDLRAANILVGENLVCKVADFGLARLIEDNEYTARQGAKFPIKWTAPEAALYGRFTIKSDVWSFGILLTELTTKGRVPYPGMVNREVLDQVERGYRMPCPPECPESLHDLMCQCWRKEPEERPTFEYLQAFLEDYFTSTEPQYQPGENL

STAT6 = target: T10, STAT6 (Homo sapiens, UniProt P42226); details: for percent of DMSO vehicle control at 10 µM / remaining activity at 10 µM: read-out: percent of DMSO vehicle control
T10 construct: made in house; host or cells: HEK293 (transient transfection), unpurified extract
T10 sequence (P42226 1-847): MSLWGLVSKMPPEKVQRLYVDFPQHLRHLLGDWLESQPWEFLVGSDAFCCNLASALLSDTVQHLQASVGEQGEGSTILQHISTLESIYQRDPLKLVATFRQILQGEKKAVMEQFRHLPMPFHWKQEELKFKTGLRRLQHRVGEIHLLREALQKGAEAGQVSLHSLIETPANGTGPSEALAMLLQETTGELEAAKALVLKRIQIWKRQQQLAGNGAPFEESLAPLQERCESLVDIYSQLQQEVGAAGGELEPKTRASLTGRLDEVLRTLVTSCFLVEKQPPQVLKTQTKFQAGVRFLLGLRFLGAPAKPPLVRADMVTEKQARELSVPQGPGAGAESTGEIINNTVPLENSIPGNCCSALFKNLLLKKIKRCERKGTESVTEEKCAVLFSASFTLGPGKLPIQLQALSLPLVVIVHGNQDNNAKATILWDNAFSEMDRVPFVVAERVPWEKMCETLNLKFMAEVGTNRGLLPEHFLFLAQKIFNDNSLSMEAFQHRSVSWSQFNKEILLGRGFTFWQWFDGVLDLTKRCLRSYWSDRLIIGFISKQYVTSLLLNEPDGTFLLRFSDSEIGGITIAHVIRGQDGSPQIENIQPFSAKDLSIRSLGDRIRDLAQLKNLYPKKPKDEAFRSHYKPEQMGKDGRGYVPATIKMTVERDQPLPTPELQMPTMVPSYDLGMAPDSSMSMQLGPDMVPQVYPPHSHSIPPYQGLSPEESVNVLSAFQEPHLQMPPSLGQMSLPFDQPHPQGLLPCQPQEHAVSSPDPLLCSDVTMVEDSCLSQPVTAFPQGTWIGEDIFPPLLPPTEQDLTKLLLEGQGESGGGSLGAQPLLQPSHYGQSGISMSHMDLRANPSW

SMILES | percent of DMSO vehicle control (GRB2) [%] | percent of DMSO vehicle control at 10 µM (CRK) [%] | remaining activity at 10 µM (FES) [%] | remaining activity at 10 µM (FGR) [%] | percent of DMSO vehicle control at 10 µM (FRK) [%] | remaining activity at 10 µM (SH2D6) [%] | remaining activity at 10 µM (SHB) [%] | remaining activity at 10 µM (SOCS4) [%] | remaining activity at 10 µM (SRC) [%] | percent of DMSO vehicle control at 10 µM (STAT6) [%] | remaining activity at 10 µM (CRK; primary screen, 10 μM) [%] | remaining activity at 10 µM (FES; primary screen, 10 μM) [%] | remaining activity at 10 µM (FGR; primary screen, 10 μM) [%] | remaining activity at 10 µM (FRK; primary screen, 10 μM) [%] | remaining activity at 10 µM (SH2D6; primary screen, 10 μM) [%] | remaining activity at 10 µM (SHB; primary screen, 10 μM) [%] | Kd (SOCS4; dose-response, read-out: KD) [µM] | remaining activity at 10 µM (SOCS4; primary screen, 10 μM) [%] | remaining activity at 10 µM (SRC; primary screen, 10 μM) [%] | remaining activity at 10 µM (STAT6; primary screen, 10 μM) [%] | further results
CC[C@H](C)[C@H](NC(=O)[C@H](CCC(=O)O)NC(=O)[C@H](CCC(=O)O)NC(=O)[C@H](Cc1ccc(OP(=O)(O)O)cc1)NC(C)=O)C(=O)N[C@@H](CCC(=O)O)C(N)=O [Ac-pYEEIE-NH2] (Ac-[pY]EEIE-NH2) | 77.1 |  |  |  |  |  |  |  |  |  |  |  |  |  |  |  |  |  |  |  | percent of DMSO vehicle control (CRK; primary screen, 10 μM): 114.0%; Kd (FES): 4.2 µM; percent of DMSO vehicle control (FES; primary screen, 10 μM): 24.1±2.4%; percent of DMSO vehicle control (FGR; primary screen, 10 μM): 49.9±0.9%; percent of DMSO vehicle control (FRK; primary screen, 10 μM): 82.5%; percent of DMSO vehicle control (SH2D6; primary screen, 10 μM): 100.6%; percent of DMSO vehicle control (SHB; primary screen, 10 μM): 117.6%; percent of DMSO vehicle control (SOCS4; primary screen, 10 μM): 32.2%; percent of DMSO vehicle control (SRC; primary screen, 10 μM): 68.6±4.6%; percent of DMSO vehicle control (STAT6; primary screen, 10 μM): 162.5%
CC(=O)N[C@@H](Cc1ccc(CP(=O)(O)O)cc1)C(=O)NC1(C(=O)N[C@@H](CC(N)=O)C(=O)NCCCc2c(O)ccc3ccccc23)CCCCC1 [CGP78850] | 0.0±0.0 | 88.3 ± 0.9 | 52 ± 0.5 | 43.3 ± 1.3 | 89.4 ± 19.2 | 89.5 ± 8.4 | 97.4 ± 9.4 | 101 ± 1.6 | 99.2 ± 4.1 | 104 ± 11 |  |  |  |  |  |  |  |  |  |  | Kd (GRB2): 0.0034 µM
CC[C@H](C)[C@H](NC(=O)[C@H](CCC(=O)O)NC(=O)[C@H](CCC(=O)O)NC(=O)[C@H](Cc1ccc(OP(=O)(O)O)cc1)NC(=O)/C=C/c1ccc(O)c(O)c1)C(=O)N[C@@H](CCC(=O)O)C(=O)O [Caffeic acid-pYEEIE] (Caffeoyl-[pY]EEIE-OH) | 73.4±9.2 | 3.1 ± 2.8 | 2.2 ± 0.4 | 0 | 0.1 ± 0.1 | 36.4 ± 4.5 | 1.8 ± 0.1 | 2.5 ± 0.1 | 0 | 103 ± 16.9 |  |  |  |  |  |  |  |  |  |  | Kd (CRK): 2.3 ± 0.67 µM; Kd (FES): 0.024 ± 0.0049 µM; Kd (FGR): 0.0027 ± 0.0053 µM; Kd (FRK): 0.0022 ± 0.00047 µM; Kd (SH2D6): 14.5 ± 2.89 µM; Kd (SHB): 1.2 ± 0.53 µM; Kd (SOCS4): 1.5 ± 0.81 µM; Kd (SRC): 0.0048 ± 0.0013 µM
O=C(CCl)Nc1cccc(CNC(=O)[C@H](Cc2ccc(OP(=O)(O)O)cc2)NC(=O)Cc2ccc(F)cc2)c1 [MN551] | 103.7 |  |  |  |  |  |  |  |  |  | 72.1 ± 0.5 | 82.1 ± 4.3 | 49.8 | 69 ± 8.3 | 93.6 ± 4.8 | 102 | 0.064 | 9.6 ± 3.9 | 70.2 ± 6.8 | 37.2 | 
NC(=O)CC[C@H](NC(=O)[C@@H]1CC[C@@H]2CCN(C(=O)CCCCCC#Cc3cccc4c3CN(C3CCC(=O)NC3=O)C4=O)C[C@H](NC(=O)c3cc4cc(C(F)(F)P(=O)(O)O)ccc4[nH]3)C(=O)N21)C(=O)NC(c1ccccc1)c1ccccc1 (stereo partly shown) [SD-36] | 92.9±1.6 | 77 ± 13.9 | 46.3 ± 7.5 | 82 ± 28 | 155 ± 4.5 | 99.6 ± 3.4 | 87.7 ± 2.3 | 30 ± 17.2 | 81.4 ± 1.5 | 4.2 ± 0.1 |  |  |  |  |  |  |  |  |  |  | Kd (SOCS4; dose-response): 5.9 µM; Kd (STAT6; dose-response): 1.07 ± 0.74 µM
CC(=O)N1CC[C@H]2CC[C@@H](C(=O)N[C@@H](CCC(N)=O)C(=O)NC(c3ccccc3)c3ccccc3)N2C(=O)[C@@H](NC(=O)c2cc3cc(C(F)(F)P(=O)(O)O)ccc3[nH]2)C1 [SI-109] | 104.9 | 119 | 160 | 128 | 151 | 96.9 ± 1.7 | 129 | 123 | 117 | 44.5 ± 2.9 |  |  |  |  |  |  |  |  |  |  | Kd (STAT6): 1.4 ± 0.00015 µM
C/C(=C\C(=O)N[C@H](C(=O)N1CCC[C@H]1C(=O)N(c1ccccc1)c1ccc(I)cc1)C(C)(C)C)c1ccc(OP(=O)(O)O)cc1 [STAT6-IN-1] |  |  |  |  |  |  |  |  |  |  | 34.5 ± 1.8 | 66.3 ± 6.4 | 20.7 ± 23.8 | 38.3 ± 5.9 | 67.5 ± 5.3 | 28.7 ± 0.4 | 0.013 | 0 | 53.3 ± 8.1 | 0 | Kd (CRK; dose-response, read-out: KD): 2.004 ± 0.0059 µM; Kd (FGR; dose-response, read-out: KD): 2.3 ± 0.55 µM; Kd (GRB2; dose-response, read-out: KD): 6.04 ± 1.4 µM; KD (SHB; dose-response): No Hit; Kd (STAT6; dose-response, read-out: KD): 0.00068 µM
CC(C)(C)[C@H](NC(=O)/C=C/c1ccc(OP(=O)(O)O)cc1)C(=O)N1CCC[C@H]1C(=O)N(c1ccccc1)c1ccc(I)cc1 [STAT6-IN-3] | 72.4±21.8 |  |  |  |  |  |  |  |  |  | 80.4 ± 9.5 | 82 ± 13.1 | 32.1 ± 40.1 | 59.9 ± 42.5 | 97.5 ± 15.9 | 53.4 ± 23.5 | 0.01 | 0 | 67 ± 21 | 0 | KD (FGR; dose-response): No Hit; Kd (STAT6; dose-response, read-out: KD): 0.0086 µM
O=C(COc1ccc2cc(C(=O)Nc3ccccc3)ccc2c1)NCc1ccc(OP(=O)(O)O)c(OP(=O)(O)O)c1 [Stafib-1] | 79.5±8.8 |  |  |  |  |  |  |  |  |  | 90.2 ± 5.9 | 116 | 34.3 | 65.3 ± 42.8 | 88.5 ± 5.5 | 114 | 3.9 ± 0.87 | 25.5 ± 12.4 | 90.6 ± 5.2 | 18.2 | KD (FGR; dose-response): No Hit; Kd (STAT6; dose-response, read-out: KD): 7.3 ± 2.3 µM
